Among the data in patent US8541588B2, “Sulfonamide derivatives” (Pfizer Limited, priority 2009, dated 2013) are IC50 values, retold here.

“And” between values parts separate entries of the source, which are not always exact repeats. Equal entries are not always repeated.

As usually defined, the IC50 is the point on the concentration scale where inhibition reaches its midpoint.

The target of the experiment is T1, Nav1.7 (or SCN9A) channel; HEK cells stably transfected with hSCN9A (Homo sapiens, UniProt Q15858).
T1 construct: expressed in transfected cells
T1 sequence (Q15858 whole entry): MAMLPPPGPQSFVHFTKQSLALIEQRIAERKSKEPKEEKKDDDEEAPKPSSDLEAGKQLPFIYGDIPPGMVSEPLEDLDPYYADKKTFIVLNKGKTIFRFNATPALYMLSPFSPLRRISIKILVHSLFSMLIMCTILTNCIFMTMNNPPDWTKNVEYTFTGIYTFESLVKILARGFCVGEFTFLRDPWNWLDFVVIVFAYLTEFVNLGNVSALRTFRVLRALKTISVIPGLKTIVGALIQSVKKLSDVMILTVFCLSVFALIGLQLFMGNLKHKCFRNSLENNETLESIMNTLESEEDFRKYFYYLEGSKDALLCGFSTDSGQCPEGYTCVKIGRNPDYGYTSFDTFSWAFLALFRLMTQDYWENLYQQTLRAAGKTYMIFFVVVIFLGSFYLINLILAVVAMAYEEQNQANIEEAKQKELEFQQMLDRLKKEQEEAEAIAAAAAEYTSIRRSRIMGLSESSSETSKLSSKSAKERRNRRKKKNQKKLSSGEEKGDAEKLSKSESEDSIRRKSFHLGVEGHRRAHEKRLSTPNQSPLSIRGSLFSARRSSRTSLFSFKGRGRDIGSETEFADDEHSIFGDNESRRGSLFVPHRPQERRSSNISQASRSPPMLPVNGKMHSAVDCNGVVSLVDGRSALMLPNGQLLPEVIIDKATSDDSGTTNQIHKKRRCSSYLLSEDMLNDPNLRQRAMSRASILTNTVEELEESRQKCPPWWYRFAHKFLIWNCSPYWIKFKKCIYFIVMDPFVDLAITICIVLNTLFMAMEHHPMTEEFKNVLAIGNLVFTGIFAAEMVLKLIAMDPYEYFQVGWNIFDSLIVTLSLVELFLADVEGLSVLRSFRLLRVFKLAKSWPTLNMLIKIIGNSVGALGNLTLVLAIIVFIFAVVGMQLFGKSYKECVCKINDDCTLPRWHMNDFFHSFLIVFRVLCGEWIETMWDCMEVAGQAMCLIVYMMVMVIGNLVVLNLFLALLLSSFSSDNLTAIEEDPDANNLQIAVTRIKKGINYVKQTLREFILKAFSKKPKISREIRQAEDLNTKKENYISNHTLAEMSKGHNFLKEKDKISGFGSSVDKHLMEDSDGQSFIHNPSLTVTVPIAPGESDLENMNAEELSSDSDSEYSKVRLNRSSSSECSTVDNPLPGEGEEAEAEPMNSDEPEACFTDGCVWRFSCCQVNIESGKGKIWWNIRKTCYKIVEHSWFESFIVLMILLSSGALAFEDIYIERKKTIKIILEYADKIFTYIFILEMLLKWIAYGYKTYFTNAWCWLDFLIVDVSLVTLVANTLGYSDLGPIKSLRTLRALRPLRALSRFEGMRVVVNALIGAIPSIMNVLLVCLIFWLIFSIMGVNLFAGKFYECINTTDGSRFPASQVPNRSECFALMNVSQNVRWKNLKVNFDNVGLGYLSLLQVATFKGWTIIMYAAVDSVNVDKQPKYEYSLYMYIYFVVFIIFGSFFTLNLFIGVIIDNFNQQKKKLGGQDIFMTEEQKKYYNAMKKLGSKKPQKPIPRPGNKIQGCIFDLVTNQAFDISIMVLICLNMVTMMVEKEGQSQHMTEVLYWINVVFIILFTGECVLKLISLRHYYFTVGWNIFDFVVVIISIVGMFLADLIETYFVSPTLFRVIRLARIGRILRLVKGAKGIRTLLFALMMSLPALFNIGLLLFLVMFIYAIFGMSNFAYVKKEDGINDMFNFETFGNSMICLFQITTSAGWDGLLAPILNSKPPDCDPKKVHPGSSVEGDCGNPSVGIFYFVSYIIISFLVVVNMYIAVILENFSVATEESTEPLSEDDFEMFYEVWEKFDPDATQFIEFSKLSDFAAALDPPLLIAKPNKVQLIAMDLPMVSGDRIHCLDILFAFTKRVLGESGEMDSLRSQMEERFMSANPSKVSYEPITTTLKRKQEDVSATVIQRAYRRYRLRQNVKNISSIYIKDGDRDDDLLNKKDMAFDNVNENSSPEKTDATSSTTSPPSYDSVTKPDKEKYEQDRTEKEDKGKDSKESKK
In words: Nav1.7 block, PatchXpress 7000 automated whole-cell voltage clamp, estimated IC50 (EIC50). In kind it is cell-based. To be noted: PatchXpress platform; hSCN9A HEK cells held at V1/2 of inactivation; estimated IC50.
`N#Cc1cc(S(=O)(=O)Nc2ncns2)ccc1Oc1cc(F)ccc1Oc1ccccc1` [Example 74, 3-cyano-4-(5-fluoro-2-phenoxyphenoxy)-N-1,2,4-thiadiazol-5-ylbenzenesulfonamide]: the IC50 was 1110 nM.
For `COc1cc(C)ccc1Oc1cccc(F)c1Oc1ccc(S(=O)(=O)Nc2ncns2)cc1C#N` [Example 75, 3-cyano-4-[2-fluoro-6-(2-methoxy-4-methylphenoxy)phenoxy]-N-1,2,4-thiadiazol-5-ylbenzenesulfonamide], the IC50 is 3340 nM.
Under `N#Cc1cc(S(=O)(=O)Nc2ncns2)ccc1Oc1ccccc1Oc1ccccc1C(N)=O` [Example 76, 2-(2-{2-cyano-4-[(1,2,4-thiadiazol-5-yl-amino)sulfonyl]phenoxy}phenoxy)benzamide] stands over 10000 nM; under `N#Cc1cc(S(=O)(=O)Nc2ncns2)ccc1Oc1ccccc1Oc1ccc(F)cc1` [Example 77, 3-cyano-4-[2-(4-fluorophenoxy)phenoxy]-N-1,2,4-thiadiazol-5-ylbenzenesulfonamide], 360 nM; under `Cc1ccc(Oc2ccc(C#N)cc2)c(Oc2ccc(S(=O)(=O)Nc3ncns3)cc2C#N)c1` [Example 78, 3-cyano-4-[2-(4-cyanophenoxy)-5-methylphenoxy]-N-1,2,4-thiadiazol-5-ylbenzenesulfonamide], 600 nM.
On to `N#Cc1cc(S(=O)(=O)Nc2ncns2)ccc1Oc1ccc(Cl)cc1Oc1ccccc1` [Example 79, 4-(4-chloro-2-phenoxyphenoxy)-3-cyano-N-1,2,4-thiadiazol-5-ylbenzenesulfonamide], for which the concentration for half-maximal inhibition (IC50) was 450 nM.
In the case of `N#Cc1cc(S(=O)(=O)Nc2ncns2)ccc1Oc1cc(C(F)(F)F)nn1Cc1ccccc1` [Example 80, 4-{[1-benzyl-3-(trifluoromethyl)-1H-pyrazol-5-yl]oxy}-3-cyano-N-1,2,4-thiadiazol-5-ylbenzenesulfonamide], the IC50 is over 300 nM.
On to `N#Cc1cc(S(=O)(=O)Nc2ncns2)ccc1Oc1cc(C(F)(F)F)nn1-c1ccccc1` [Example 81, 3-cyano-4-{[1-phenyl-3-(trifluoromethyl)-1H-pyrazol-5-yl]oxy}-N-1,2,4-thiadiazol-5-ylbenzenesulfonamide], for which the IC50 was 510 nM.
With `Cn1nc(-c2ccccc2)cc1Oc1ccc(S(=O)(=O)Nc2ncns2)cc1C#N` [Example 82, 3-cyano-4-[(1-methyl-3-phenyl-1H-pyrazol-5-yl)oxy]-N-1,2,4-thiadiazol-5-ylbenzenesulfonamide], the IC50 was 37200 nM.
As to `CC(C)(C)n1nccc1-c1c(F)cccc1Oc1ccc(S(=O)(=O)Nc2ncns2)cc1C#N` [Example 83, 4-[2-(1-tert-butyl-1H-pyrazol-5-yl)-3-fluorophenoxy]-3-cyano-N-1,2,4-thiadiazol-5-ylbenzenesulfonamide], the IC50 is 2450 nM.
Under `CC(C)(C)n1ccc(-c2c(F)cccc2Oc2ccc(S(=O)(=O)Nc3ncns3)cc2C#N)n1` [Example 84, 4-[2-(1-tert-Butyl-1H-pyrazol-3-yl)-3-fluoro-phenoxy]-3-cyano-N-[1,2,4]thiadiazol-5-yl-benzene-sulfonamide] stands over 10000 nM; under `Cn1ccc(-c2c(F)cccc2Oc2ccc(S(=O)(=O)Nc3ncns3)cc2C#N)n1` [Example 85, 3-Cyano-4-[3-fluoro-2-(1-methyl-1H-pyrazol-3-yl)-phenoxy]-N-[1,2,4]thiadiazol-5-yl-benzene-sulfonamide], 1430 nM.
For the molecule `Cn1nccc1-c1c(F)cccc1Oc1ccc(S(=O)(=O)Nc2ncns2)cc1C#N` [Example 86, 3-cyano-4-[3-fluoro-2-(1-methyl-1H-pyrazol-5-yl)phenoxy]-N-1,2,4-thiadiazol-5-ylbenzenesulfonamide], the IC50 was 1880 nM.
Under `N#Cc1cc(S(=O)(=O)Nc2ncns2)ccc1Oc1cc(C2CC2)nn1-c1cc(F)ccc1F` [Example 87, 3-cyano-4-{[3-cyclopropyl-1-(2,5-difluorophenyl)-1H-pyrazol-5-yl]oxy}-N-1,2,4-thiadiazol-5-ylbenzenesulfonamide] stands 1600 nM; under `N#Cc1cc(S(=O)(=O)Nc2ncns2)ccc1Oc1cc(C(F)(F)F)nn1-c1ccccc1F` [Example 88, 3-cyano-4-{[1-(2-fluorophenyl)-3-(trifluoromethyl)-1H-pyrazol-5-yl]oxy}-N-1,2,4-thiadiazol-5-ylbenzenesulfonamide], 270 nM; under `N#Cc1cc(S(=O)(=O)Nc2ncns2)ccc1Oc1cccc(F)c1-c1ccn[nH]1` [Example 89, 3-cyano-4-[3-fluoro-2-(2H-pyrazol-3-yl)-phenoxy]-N-[1,2,4]thiadiazol-5-yl-benzenesulfonamide], 680 nM.
Regarding `N#Cc1cc(S(=O)(=O)Nc2ncns2)ccc1Oc1ccc(Cl)cc1-c1ccnn1CCO` [Example 90, 4-(4-chloro-2-(1-(2-hydroxyethyl)-1H-pyrazol-5-yl)phenoxy)-3-cyano-N-(1,2,4-thiadiazol-5-yl)benzenesulfonamide], the IC50 is 100 nM.
For the molecule `Cn1nccc1-c1cc(CO)ccc1Oc1ccc(S(=O)(=O)Nc2ncns2)cc1C#N` [Example 91, 3-cyano-4-(4-(hydroxymethyl)-2-(1-methyl-1H-pyrazol-5-yl)phenoxy)-N-(1,2,4-thiadiazol-5-yl)benzenesulfonamide], the IC50 is 1120 nM.
Turning to `CCOC(=O)Cn1nc(Cc2ccc(Cl)cc2)cc1Oc1ccc(S(=O)(=O)Nc2ncns2)cc1C#N` [Example 92, 3-(4-chloro-benzyl)-5-{2-cyano-4-(1,2,4-thiadiazol-5-ylsulfamoyl)-phenoxy}-pyrazol-1-yl-acetic acid ethyl ester], the 50% inhibitory concentration (IC50) was 1810 nM.
As for `N#Cc1cc(S(=O)(=O)Nc2ncns2)ccc1Oc1cc(Cc2ccc(Cl)cc2)nn1CC(N)=O` [Example 93, 2-[3-(4-chlorobenzyl)-5-{2-cyano-4-[(1,2,4-thiadiazol-5-ylamino)sulfonyl]phenoxy}-1H-pyrazol-1-yl]acetamide], the IC50 is 1570 nM.
On to `N#Cc1cc(S(=O)(=O)Nc2ncns2)ccc1Oc1cc(Cc2ccc(Cl)cc2)nn1CCO` [Example 94, 4-{[3-(4-chlorobenzyl)-1-(2-hydroxyethyl)-1H-pyrazol-5-yl]oxy}-3-cyano-N-1,2,4-thiadiazol-5-ylbenzenesulfonamide], for which the IC50 was 2180 nM.
As for `N#Cc1cc(S(=O)(=O)Nc2ncco2)ccc1Oc1ccccc1-c1ccccc1` [Example 95, 4-(biphenyl-2-yloxy)-3-cyano-N-1,3-oxazol-2-ylbenzenesulfonamide], the IC50 is over 10000 nM.
As for `COc1nsc(NS(=O)(=O)c2ccc(Oc3ccccc3-c3ccccc3)c(C#N)c2)n1` [Example 96, 4-(biphenyl-2-yloxy)-3-cyano-N-(3-methoxy-1,2,4-thiadiazol-5-yl)benzenesulfonamide], the 50% inhibitory concentration (IC50) was 12500 nM.
As for `N#Cc1cc(S(=O)(=O)Nc2cscn2)ccc1Oc1ccccc1-c1ccccc1` [Example 97, 4-(biphenyl-2-yloxy)-3-cyano-N-1,3-thiazol-4-ylbenzenesulfonamide], the IC50 is 2320 nM.
Under `N#Cc1cc(S(=O)(=O)Nc2cnsc2)ccc1Oc1ccccc1-c1ccccc1` [Example 99, 4-(biphenyl-2-yloxy)-3-cyano-N-isothiazol-4-ylbenzenesulfonamide] stands >10000 nM and 24900 nM; under `Cc1cnc(NS(=O)(=O)c2ccc(Oc3ccccc3-c3ccccc3)c(C#N)c2)s1` [Example 100, 4-(biphenyl-2-yloxy)-3-cyano-N-(5-methyl-1,3-thiazol-2-yl)benzenesulfonamide], 3170 nM.
With `Cc1csc(NS(=O)(=O)c2ccc(Oc3ccccc3-c3ccccc3)c(C#N)c2)n1` [Example 101, 4-(biphenyl-2-yloxy)-3-cyano-N-(4-methyl-1,3-thiazol-2-yl)benzenesulfonamide], the IC50 is 1580 nM.
Under `CCc1nsc(NS(=O)(=O)c2ccc(Oc3ccccc3-c3ccccc3)c(C#N)c2)n1` [Example 102, 4-(biphenyl-2-yloxy)-3-cyano-N-(3-ethyl-1,2,4-thiadiazol-5-yl)benzenesulfonamide] stands over 10000 nM; under `Cc1nsc(NS(=O)(=O)c2ccc(Oc3ccccc3-c3ccccc3)c(C#N)c2)n1` [Example 103, 4-(biphenyl-2-yloxy)-3-cyano-N-(3-methyl-1,2,4-thiadiazol-5-yl)benzenesulfonamide], 1300 nM.
Regarding `N#Cc1cc(S(=O)(=O)Nc2nncs2)ccc1Oc1ccccc1-c1ccccc1` [Example 104, 4-(biphenyl-2-yloxy)-3-cyano-N-1,3,4-thiadiazol-2-ylbenzenesulfonamide], the IC50 is 2250 nM.
For the molecule `N#Cc1cc(S(=O)(=O)Nc2cncs2)ccc1Oc1ccccc1-c1ccccc1` [Example 105, 4-(biphenyl-2-yloxy)-3-cyano-N-1,3-thiazol-5-ylbenzenesulfonamide], the half-maximal inhibitory concentration (IC50) is 2670 nM.
With `N#Cc1cc(S(=O)(=O)Nc2ccncn2)ccc1Oc1ccccc1-c1ccccc1` [Example 106, 4-(biphenyl-2-yloxy)-3-cyano-N-pyrimidin-4-ylbenzenesulfonamide], the concentration for half-maximal inhibition (IC50) was 4160 nM.
With `N#Cc1cc(S(=O)(=O)Nc2cnoc2)ccc1Oc1ccccc1-c1ccccc1` [Example 108, 4-(biphenyl-2-yloxy)-3-cyano-N-isoxazol-4-ylbenzenesulfonamide], the IC50 is over 10000 nM.
For `N#Cc1cc(S(=O)(=O)Nc2ccon2)ccc1Oc1ccccc1-c1ccccc1` [Example 110, 4-(biphenyl-2-yloxy)-3-cyano-N-isoxazol-3-ylbenzenesulfonamide], the IC50 was 4270 nM.
Take `N#Cc1cc(S(=O)(=O)Nc2ccccc2C(F)(F)F)ccc1Oc1ccccc1-c1ccccc1` [Example 111, 4-(biphenyl-2-yloxy)-3-cyano-N-[2-(trifluoromethyl)phenyl]benzenesulfonamide]: the IC50 is over 3000 nM.
For `Cc1snnc1NS(=O)(=O)c1ccc(Oc2ccccc2-c2ccccc2)c(C#N)c1` [Example 112, 4-(biphenyl-2-yloxy)-3-cyano-N-(5-methyl-1,2,3-thiadiazol-4-yl)benzenesulfonamide], the IC50 was 33700 nM.
As to `Cn1ccnc1NS(=O)(=O)c1ccc(Oc2ccccc2-c2ccccc2)c(C#N)c1` [Example 113, 4-(biphenyl-2-yloxy)-3-cyano-N-(1-methyl-1H-imidazol-2-yl)benzenesulfonamide], the IC50 is 12900 nM.
